# Data published in patent publication US20230172901A1, “COMPOSITIONS AND METHODS FOR THE PROPHYLAXIS AND TREATMENT OF FIBROTIC AND INFLAMMATORY CONDITIONS” (GRETALS AUSTRALIA PTY LTD, priority 2020, published 2023).
# “Also recorded” adds a separate entry of the source.
# Columns and labels:
# Assay type in all cases: in vivo
# [1] = tested on: sheep model for pulmonary fibrosis; test: Example 2: overall conclusion on efficacy in sheep model of pulmonary fibrosis
# Excerpt: (§1) In this study, a total of 10 sheep were used. Fibrosis in two lung segments of each sheep in a similar manner as performed in Example 1 herein. Using this procedure (as detailed further below) the fibrosis was confined to small, isolated regions in the lungs leaving the remaining 90-95% of the healthy unaffected lungs to undertake normal respiratory function.
# (§2) All sheep (n=10) in the study were challenged with 2 single doses of bleomycin (3 units) per lung segment, a fortnight apart and the animals were kept for a little over 5 weeks after the final bleomycin dose. Bleomycin is a well-known agent for inducing fibrosis in the lungs. The administration procedure involves inserting a bronchoscope into lung segments in the right and left lung, and then slowly infusing the bleomycin into two segments as shown in FIG. 2 via the bronchoscope biopsy port.
# (§3) In the study detailed in Example 1 herein, the dose-rate of pinocembrin was 7 mg pinocembrin per sheep, per week.
# For control purposes the lung segment in the opposite lung was used as a bleomycin-positive, without drug, control, as indicated in FIG. 1. The bioactive molecules in vehicle, were delivered as 5 ml infusions through the biopsy port of the bronchoscope. […]
# [2] = tested on: sheep model of lung disease, bleomycin-induced lung damage; test: Example 1: bleomycin sheep pulmonary model, lung function, inflammation and fibrosis (3 sheep)
# Excerpt: In animal models, bleomycin is the most widely used agent to characterise pulmonary fibrosis. In the sheep model, intratracheal administrations of two doses of bleomycin is used to induce fibrosis in the lung parenchyma. The overall study protocol is shown at FIG. 1.
# For this example, three female merino sheep aged between 9 months and 1 year were utilised. Animals were housed indoors and received anthelminthic to treat for any existing parasitic disease. The sheep were judged to be free from significant pulmonary disease on the basis of clinical examination before the commencement of experiments and on inspection of gross pathology at autopsy. The Animal Experimentation Ethics Committee of the University of Melbourne, which adheres to the Australian Code of Practice for the care and use of laboratory animals for scientific purposes, approved all experimental procedures outlined below.
# Bleomycin sulphate was made up at a concentration of 0.6 U bleomycin/mL saline and administered to the left and right caudal lobes at a rate of 3 U per segment to cause injury to the tissue and trigger fibrosis. For the left caudal lobe, 7 mg of pinocembrin in 10% DMSO was administered to test the efficacy of pinocembrin in the treatment or prevention of bleomycin-induced fibrosis. For the right caudal lobe injury was induced by bleomycin, and DMSO alone administered such that any differential effects between the left and right caudal lobes could be attributed to the pinocembrin.
# A saline solution was administered to the right medial lobe, as a sham treatment.
# Each of the bleomycin, bleomycin/pinocembrin, and saline compositions was administered via the biopsy port of a fibre-optic bronchoscope to the appropriate lung segments as a 5 ml bolus.
# Timing of the administration of the various compositions is summarised at FIG. 1, with all three sheep euthanized at week 12.
# The sheep were euthanized by an intravenous overdose of barbiturate (Lethabarb, Veterinary Clinic, University of Melbourne, Werribee, Australia) at week 12 as outlined in FIG. 1 for tissue collection and analysis.
# Following euthanasia, the lungs were removed and targeted lung segments identified and carefully dissected free from surrounding tissue. Individual segments were then inflated with a 1:1 mixture of OCT and sterile PBS solution. […]
# Segmental compliance (Cseg) was assessed using pressure responses to flow in the different segments as indicated FIG. 2 in awake, consciously breathing sheep using a wedged-bronchoscope technique. […]
# Segmental lung compliance was calculated. […] Segmental compliance was then calculated from the pressure-flow decay curve generated from this procedure. The process was repeated 3 times for each segment and expressed as an average value for Cseg. […]
# [3] = tested on: sheep model for pulmonary fibrosis, bleomycin-injured lung segments; test: Example 2: hydroxyproline assay for collagen content; details: increase induced by bleomycin
# Excerpt: as §1
# as §2, with “port. […]” for “port.”
# The hydroxyproline assay was used to extrapolate the collagen content and concentration of each segment. Briefly, frozen lung tissues from each segment were lyophilized to dry weight, hydrolyzed in 6M HCl, and assessed for hydroxyproline content by measuring the absorbance of reconstituted samples (in 0.1M HCl) at 558 nm using a Beckman DU-64 spectrophotometer (Beckman Coulter Inc, Brea, Calif.). Hydroxyproline content was determined from a standard curve of trans-L-hydroxy-L-proline (Sigma-Aldrich).). […]
# [4] = tested on: sheep model for pulmonary fibrosis, bleomycin-injured lung segments; test: Example 2: bronchoalveolar lavage (BAL) inflammatory cell counts
# Excerpt: as §1, §2, §3
# For control purposes the lung segment in the opposite lung was used as a bleomycin-positive, without drug, control, as indicated in FIG. 1. The bioactive molecules in vehicle, were delivered as 5 ml infusions through the biopsy port of the bronchoscope. Note that to nullify any small differences (e.g. physiological or anatomical etc.) between the left and right lungs, the infusions of pinocembrin were randomized between the left and right caudal lung segments. Half the animals (5 sheep) received pinocembrin to the right caudal lung segments, while the other 5 sheep received pinocembrin to the left caudal lung segments. The right medial lung segment was left untreated and used for healthy lung control tissue which was sampled at autopsy (FIG. 2).
# For each of the bronchoalveolar (BAL) samplings at the timepoints listed in FIG. 1, the endoscope was manipulated into a specific lung-segment for sampling, usually passing through about 3-4 airway branches. For BAL sampling, 10 ml of sterile saline was infused through the biopsy port of the endoscope into the specific lung-segment and then recovered into a syringe through the same port. This procedure recovered between 3 and 5 ml of BAL fluid. The sampling method collects cells for analyses from the small airway and alveolar lumens of the specific lung-segment where the bronchoscope was navigated to. The BAL cells from each segment were centrifuged onto glass slides and stained for differential cell counting of inflammatory cells with Hem-Quik.
# [5] = 7 mg pinocembrin in 10% DMSO, 4 weekly doses, left vs right caudal segment
# [6] = week 12, vs bleomycin alone without pinocembrin, 4 weekly infusions of 7 mg, n=10 sheep
smiles,measurement,setting,value
"O=C1CC(c2ccccc2)Oc2cc(O)cc(O)c21 (stereo not drawn) [pinocembrin, 5,7-Dihydroxy-2-Phenyl-2,3-Dihydro-4H-Chromen-4-One]",anti-inflammatory properties (overall),[1]; from BAL cell and parenchymal T cell data,strong anti-inflammatory properties
same,anti-fibrotic effect (overall),"[1]; from fibrosis scores, Masson's trichrome and hydroxy proline assays",modest anti-fibrotic effect
same,"beneficial effect of pinocembrin (significance, number of sheep)",[2],statistically significant and noted in all three sheep
same,lung function,"[2]; 7 mg pinocembrin in 10% DMSO, 4 weekly doses, bleomycin-injured left caudal segment vs right caudal segment (bleomycin + DMSO)",improvement
same,fibrosis,[2]; [5],decrease
same,inflammation,[2]; [5],decrease
same,collagen content (hydroxyproline assay),"[3]; 4 weekly treatments of 7 mg, 10 sheep (FIG. 16A)",did not reduce; also recorded: not associated with a significant decrease; also recorded: did not address the increase
same,collagen content (hydroxyproline assay),[3]; all 13 sheep of Examples 1 and 2 (FIG. 16B),does not reduce
same,sheep with lower inflammatory cell numbers in BAL fluid,"[4]; individual sheep data, vs bleomycin without pinocembrin, 10 sheep",Nine out of ten
same,"neutrophil, % of total BAL cells",[4]; pinocembrin-treated bleomycin-injured lung segments (7.4% in bleomycin without drug),3.7%
same,"numbers of inflammatory cells (neutrophils, eosinophils and lymphocytes) in BAL fluid",[4]; [6],significantly lower; also recorded: significantly reduces
same,numbers of neutrophils in BAL fluid,[4]; [6],significantly lower
